Values of other authors in patent US6488962B1, “Tablet shapes to enhance gastric retention of swellable controlled-release oral dosage forms” (DepoMed, Inc., priority 2000, dated 2002).

Conditions: oral doses administered with or following a meal

area under the plasma concentration-time curve, with or following a meal versus without: two to three times greater
peak plasma concentration, with or following a meal versus without: two to three times greater
SMILES: Cc1c(O)cccc1C(=O)N[C@@H](CSc1ccccc1)[C@H](O)CN1C[C@H]2CCCC[C@H]2C[C@H]1C(=O)NC(C)(C)C [nelfinavir]
